Test results reported in US20250206727A1, “HETEROCYCLIC SUBSTITUTED AROMATIC COMPOUND, PREPARATION METHOD THEREFOR, HERBICIDAL COMPOSITION AND APPLICATION” (QINGDAO KINGAGROOT CHEMICAL COMPOUND CO., LTD., priority 2022, published 2025).

What was measured:
Test in all cases: Post-emergence test on weeds (greenhouse, spray at 2-3 leaf stage)
Format in all cases: in vivo
Design in all cases: key: Level 10: completely dead; Level 9: growth control rate greater than or equal to 90% and less than 100%; Level 8: growth control rate greater than or equal to 80% and less than 90%; Level 7: growth control rate greater than or equal to 70% and less than 80%; Level 6: growth control rate greater than or equal to 60% and less than 70%; Level 5: growth control rate greater than or equal to 50% and less than 60%; Level 4: growth control rate greater than or equal to 40% and less than 50%; Level 3: growth control rate greater than or equal to 30% and less than 40%; Level 2: growth control rate greater than or equal to 20% and less than 30%; Level 1: growth control rate less than 20%; Level 0: no effect
Details in all cases: 60 g a.i./ha, 3 weeks after application
[1] = tested on: Veronica polita
Summary of the method: (§1)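 Greenhouse pot-grown weeds were sprayed by spray tower at the 2-3 leaf stage, about two weeks after sowing, with acetone/Tween 80 solutions plus 1.5 L/ha methyl oleate EC synergist at 500, 250, […], 15 and 7.5 g a.i./ha. Fresh-weight growth control was scored 0-10 after 3 weeks, triplicate averaged.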

[2] = tested on: Echinochloa crus-galli
Summary of the method: as §1

[3] = tested on: Abutilon theophrasti
Summary of the method: as §1

[4] = tested on: Digitaria sanguinalis
Summary of the method: as §1

[5] = tested on: Setaria viridis
Summary of the method: as §1

[6] = tested on: Amaranthus retroflexus
Summary of the method: as §1

COC(=O)C1(C)ON=C(c2cc(-c3ncc(OC(F)F)cc3Cl)c(F)cc2Cl)O1 (stereo not drawn) [Compound 3]
10: activity level (fresh weight growth control rate), Veronica polita [1] | activity level (fresh weight growth control rate), Echinochloa crus-galli [2] | activity level (fresh weight growth control rate), Abutilon theophrasti [3] | activity level (fresh weight growth control rate), Digitaria sanguinalis [4] | activity level (fresh weight growth control rate), Setaria viridis [5] | activity level (fresh weight growth control rate), Amaranthus retroflexus [6]

C#CCOC(=O)C1(C)ON=C(c2cc(-c3ncc(C(F)(F)F)cc3Cl)c(F)cc2Cl)O1 (stereo not drawn) [Compound 97]
10: activity level (fresh weight growth control rate), Veronica polita [1] | activity level (fresh weight growth control rate), Echinochloa crus-galli [2] | activity level (fresh weight growth control rate), Abutilon theophrasti [3] | activity level (fresh weight growth control rate), Digitaria sanguinalis [4] | activity level (fresh weight growth control rate), Setaria viridis [5] | activity level (fresh weight growth control rate), Amaranthus retroflexus [6]

CCOC(=O)C1(C)ON=C(c2cc(-c3ncc(C(F)(F)F)cc3OC)c(F)cc2Cl)O1 (stereo not drawn) [Compound 33]
10: activity level (fresh weight growth control rate), Veronica polita [1] | activity level (fresh weight growth control rate), Echinochloa crus-galli [2] | activity level (fresh weight growth control rate), Abutilon theophrasti [3] | activity level (fresh weight growth control rate), Digitaria sanguinalis [4] | activity level (fresh weight growth control rate), Setaria viridis [5] | activity level (fresh weight growth control rate), Amaranthus retroflexus [6]

COCCOC(=O)C1ON=C(c2cc(-c3ncc(C(F)(F)F)cc3Cl)c(F)cc2Cl)O1 (stereo not drawn) [Compound 112]
10: activity level (fresh weight growth control rate), Veronica polita [1] | activity level (fresh weight growth control rate), Echinochloa crus-galli [2] | activity level (fresh weight growth control rate), Abutilon theophrasti [3] | activity level (fresh weight growth control rate), Digitaria sanguinalis [4] | activity level (fresh weight growth control rate), Setaria viridis [5] | activity level (fresh weight growth control rate), Amaranthus retroflexus [6]

COC(=O)C1(C)ON=C(c2cc(-c3ncc(C)cc3Cl)c(F)cc2Cl)O1 (stereo not drawn) [Compound 12]
10: activity level (fresh weight growth control rate), Veronica polita [1] | activity level (fresh weight growth control rate), Echinochloa crus-galli [2] | activity level (fresh weight growth control rate), Abutilon theophrasti [3] | activity level (fresh weight growth control rate), Digitaria sanguinalis [4] | activity level (fresh weight growth control rate), Setaria viridis [5] | activity level (fresh weight growth control rate), Amaranthus retroflexus [6]

CC1(C(=O)O)ON=C(c2cc(-c3ncc(C(F)(F)F)cc3Cl)c(F)cc2Cl)O1 (stereo not drawn) [Compound 1]
10: activity level (fresh weight growth control rate), Veronica polita [1] | activity level (fresh weight growth control rate), Echinochloa crus-galli [2] | activity level (fresh weight growth control rate), Abutilon theophrasti [3] | activity level (fresh weight growth control rate), Digitaria sanguinalis [4] | activity level (fresh weight growth control rate), Setaria viridis [5] | activity level (fresh weight growth control rate), Amaranthus retroflexus [6]

CCC1(C(=O)OC)ON=C(c2cc(-c3ncc(C(F)(F)F)cc3Cl)c(F)cc2Cl)O1 (stereo not drawn) [Compound 17]
10: activity level (fresh weight growth control rate), Veronica polita [1] | activity level (fresh weight growth control rate), Echinochloa crus-galli [2] | activity level (fresh weight growth control rate), Abutilon theophrasti [3] | activity level (fresh weight growth control rate), Digitaria sanguinalis [4] | activity level (fresh weight growth control rate), Setaria viridis [5] | activity level (fresh weight growth control rate), Amaranthus retroflexus [6]

CCCCOC(=O)C1(C)ON=C(c2cc(-c3ncc(C(F)(F)F)cc3Cl)c(F)cc2Cl)O1 (stereo not drawn) [Compound 89]
10: activity level (fresh weight growth control rate), Veronica polita [1] | activity level (fresh weight growth control rate), Echinochloa crus-galli [2] | activity level (fresh weight growth control rate), Abutilon theophrasti [3] | activity level (fresh weight growth control rate), Digitaria sanguinalis [4] | activity level (fresh weight growth control rate), Setaria viridis [5] | activity level (fresh weight growth control rate), Amaranthus retroflexus [6]

COCCCOC(=O)C1ON=C(c2cc(-c3ncc(C(F)(F)F)cc3Cl)c(F)cc2Cl)O1 (stereo not drawn) [Compound 115]
10: activity level (fresh weight growth control rate), Veronica polita [1] | activity level (fresh weight growth control rate), Echinochloa crus-galli [2] | activity level (fresh weight growth control rate), Abutilon theophrasti [3] | activity level (fresh weight growth control rate), Digitaria sanguinalis [4] | activity level (fresh weight growth control rate), Setaria viridis [5] | activity level (fresh weight growth control rate), Amaranthus retroflexus [6]

COCOC(=O)C1(C)ON=C(c2cc(-c3ncc(C(F)(F)F)cc3Cl)c(F)cc2Cl)O1 (stereo not drawn) [Compound 108]
10: activity level (fresh weight growth control rate), Veronica polita [1] | activity level (fresh weight growth control rate), Echinochloa crus-galli [2] | activity level (fresh weight growth control rate), Abutilon theophrasti [3] | activity level (fresh weight growth control rate), Digitaria sanguinalis [4] | activity level (fresh weight growth control rate), Setaria viridis [5] | activity level (fresh weight growth control rate), Amaranthus retroflexus [6]

CCOC(=O)C1(C)ON=C(c2cc(-c3ncc(Cl)cc3F)c(F)cc2Cl)O1 (stereo not drawn) [Compound 31]
10: activity level (fresh weight growth control rate), Veronica polita [1] | activity level (fresh weight growth control rate), Echinochloa crus-galli [2] | activity level (fresh weight growth control rate), Abutilon theophrasti [3] | activity level (fresh weight growth control rate), Digitaria sanguinalis [4] | activity level (fresh weight growth control rate), Setaria viridis [5] | activity level (fresh weight growth control rate), Amaranthus retroflexus [6]

CCOC(C)=NOC(=O)C1(C)ON=C(c2cc(-c3ncc(C(F)(F)F)cc3Cl)c(F)cc2Cl)O1 (racemic) [Compound 141]
10: activity level (fresh weight growth control rate), Veronica polita [1] | activity level (fresh weight growth control rate), Echinochloa crus-galli [2] | activity level (fresh weight growth control rate), Abutilon theophrasti [3] | activity level (fresh weight growth control rate), Digitaria sanguinalis [4] | activity level (fresh weight growth control rate), Setaria viridis [5] | activity level (fresh weight growth control rate), Amaranthus retroflexus [6]

CCOC(=O)C1ON=C(c2cc(-c3ccc(C(F)(F)F)cn3)c(F)cc2Cl)O1 (stereo not drawn) [Compound 23]
10: activity level (fresh weight growth control rate), Veronica polita [1] | activity level (fresh weight growth control rate), Echinochloa crus-galli [2] | activity level (fresh weight growth control rate), Abutilon theophrasti [3] | activity level (fresh weight growth control rate), Digitaria sanguinalis [4] | activity level (fresh weight growth control rate), Setaria viridis [5] | activity level (fresh weight growth control rate), Amaranthus retroflexus [6]

CC1(C(=O)ON=C(c2ccccc2)c2ccccc2)ON=C(c2cc(-c3ncc(C(F)(F)F)cc3Cl)c(F)cc2Cl)O1 (racemic) [Compound 146]
10: activity level (fresh weight growth control rate), Veronica polita [1] | activity level (fresh weight growth control rate), Echinochloa crus-galli [2] | activity level (fresh weight growth control rate), Abutilon theophrasti [3] | activity level (fresh weight growth control rate), Digitaria sanguinalis [4] | activity level (fresh weight growth control rate), Setaria viridis [5] | activity level (fresh weight growth control rate), Amaranthus retroflexus [6]
